Where no end group is shown, it is not given here.
Key:
[1] = biological target: T1, 20S immuno-proteasomes from mouse B-cell line (RMA) (Mus musculus, UniProt O35955+P28063+P28076); experiment: In vitro proteasome mediated digestion of 30-mers, mass spectrometry, immunoproteasome RMA; assay type: biochemical; conditions: 30 residue long precursor peptides
T1 construct: 20S immuno-proteasomes were purified from a mouse B-cell line (RMA); endogenous in cells; host or cells: RMA cells; 20S proteasome purified from them
Description: (§1) In the context of the invention, “being inefficiently processed by a proteasome” preferably means that within the first hour of digestion by a proteasome less than 1% of total digested peptide is found. The processing by a proteasome is preferably assessed by incubating a purified proteasome, more preferably a human proteasome with a peptide comprising the potential CTL epitope (30 amino acid length approximately) in a proteasome digestion buffer during at least one hour at 37° C. The reaction is subsequently stopped by adding trifluoroacetic acid. Analysis of the digested peptides is performed with electrospray ionization mass spectrometry (see example 1). Even more preferably, the human proteasome is an immunoproteasome from B-LCL JY cells (Kessler J H et al. 2001).
(§2) 20S immuno-proteasomes were purified from a mouse B-cell line (RMA) and a human B-LCL cell line (JY) and 20S household proteasomes were purified from human tumor cell line (HeLa) as described (Kessler J H et al 2001). To assess kinetics, digestions were performed with different incubation periods as indicated. Briefly, peptides containing the (potential) CTL epitopes (30 mers, 20 μg) were incubated with 1 μg of purified proteasome at 37° C. for 1 h, 4 h and 24 h in 300 μl proteasome digestion buffer, trifluoroacetic acid (30 μl) was added to stop the digestion and samples were stored at −20° C. before mass spectrometric analysis. Electrospray ionization mass spectrometry was performed on a hybrid quadrupole time-of-flight mass spectromter, a Q-TOF (Micromass), equipped with an on-line nanoelectrospray interface with an approximate flow rate of […] as described (Kessler J H et al 2001). The peaks in the mass spectrum were searched in the digested precursor peptide using the Biolynx/proteins software (Micromass) supplied with the mass spectrometer. The intensity of the peaks in the mass spectra was used to establish the relative amounts of peptides generated after proteasome digestion. The relative amounts of the peptides are given as a percentage of the total amount of peptide digested by the proteasome at the indicated incubation time. Major cleavage sites are defined as more than >1% of total digested peptide within the first hour.

[2] = biological target: T2, 20S household proteasomes from human tumor cell line (HeLa) (Homo sapiens, UniProt P28072+P28074+Q99436); experiment: In vitro proteasome mediated digestion of 30-mers, mass spectrometry, household proteasome HeLa; assay type: biochemical; conditions: 30 residue long precursor peptides
T2 construct: 20S household proteasomes were purified from human tumor cell line (HeLa); endogenous in cells; host or cells: HeLa cells; 20S proteasome purified from them
Description: as §1, §2

[3] = biological target: T3, 20S immuno-proteasomes from human B-LCL cell line (JY) (Homo sapiens, UniProt P28062+P28065+P40306); experiment: In vitro proteasome mediated digestion of 30-mers, mass spectrometry, immunoproteasome JY; assay type: biochemical; conditions: 30 residue long precursor peptides
T3 construct: purified from a mouse B-cell line (RMA) and a human B-LCL cell line (JY); endogenous in cells; host or cells: B-LCL JY cells; 20S proteasome purified from them
Description: as §1, §2

HLA-A*0301 [4] = biological target: T4, HLA-A*0301 (Homo sapiens, UniProt P04439); experiment: Competition based cellular binding assay, HLA-A*0301 (B-cell line EKR); conditions: for HLA binding Affinity (Table 5): HLA type A3
T4 construct: B-cell lines used are: CAA (A*0101), EKR (A*0301), BVR (A*1101), VIJF (A*2401); endogenous in cells; host or cells: B-cell line EKR

HLA-A*0301 [5] = biological target: T4, HLA-A*0301; experiment: Stability of peptide-HLA complex, binding at 4° C. and 20° C., HLA-A*0301; conditions: for Peptide Binding Stability: HLA-A*0301, IC50 at 20° C. vs 4° C.; for HLA binding Stability (Table 5): HLA type A3
Summary of the method: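 Competition binding used B-cell lines CAA (A*0101), EKR (A*0301), BVR (A*1101) and VIJF (A*2401) against fluorescein-labelled reference peptides. IC50 is the peptide concentration inhibiting 50% of reference binding. Binding was run at 4 °C and 20 °C with IC50 determined at each; complexes losing >50% within 2 hours were deemed unstable.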

HLA-A*1101 [6] = biological target: T5, HLA-A*1101 (Homo sapiens, UniProt P04439, A114D/D185E/E176A/F33Y/L180Q/S129P/T187R); experiment: Competition based cellular binding assay, HLA-A*1101 (B-cell line BVR); conditions: HLA-A*1101; IC50 category
T5 construct: B-cell lines used are: CAA (A*0101), EKR (A*0301), BVR (A*1101), VIJF (A*2401); endogenous in cells; host or cells: B-cell line BVR

HLA-A*1101 [7] = biological target: T5, HLA-A*1101; experiment: Stability of peptide-HLA complex, binding at 4° C. and 20° C., HLA-A*1101; conditions: HLA-A*1101; IC50 at 20° C. vs 4° C.
Description: (§3) Stability of other peptide-HLA complexes was preferably determined as follows. […] Peptides of >50% of the initial complexes was lost within 2 hours were considered unstable. […] The rest was designated as unstable peptide binding.
(§4) Peptides 8-11 residues in length were selected based on typical anchor residues for HLA-A*0101, A*0301, A*1101 and HLA-A*2401 (Rammensee H G et al). The capacity of peptides to bind was tested in a competition based cellular binding assay as previously described (van der Burg S H et al 1995). FL-labeled reference peptides were synthesized as Cys-derivative (van der Burg S H et al 1995). Fluorescence labeled reference peptides used were: YLEPAC(FL)AK (SEQ ID NO: 87) (HLA-A*0101) and KVFPC(FL)ALINK (SEQ ID NO: 88) (HLA-A*1101) (Sette A et al), KVFPC(FL)ALINK (SEQ ID NO: 89) (HLAA*0301) (van der Burg S H et al 1995) and RYLKC(FL)QQLL (SEQ ID NO: 90) (A*2401) (Dai L C et al). B-cell lines used are: CAA (A*0101), EKR (A*0301), BVR (A*1101), VIJF (A*2401). The relative binding capacity of the peptides is expressed as the peptide concentration to inhibit 50% (1050) of the binding of the reference peptide. […] Peptide stabilization for HLA-A*0201 was performed as previously described (van der Burg S H et al, 1996). Peptides of >50% of the initial complexes was lost within 2 hours were considered unstable. Stability of other peptide-HLA complexes was determined as follows. Peptide binding was performed at 4° C. and 20° C. and 1050 were determined. […] The rest was designated as unstable peptide binding.

HLA-A*2401 [8] = experiment: Competition based cellular binding assay, HLA-A*2401 (B-cell line VIJF); parameters: species or system human
HLA-A*2401 [9] = experiment: Stability of peptide-HLA complex, binding at 4° C. and 20° C., HLA-A*2401; parameters: species or system human
Description: as §3, §4

## CC(C)C[C@H](NC(=O)[C@@H](NC(=O)[C@H](CC(N)=O)NC(=O)[C@H](CC(N)=O)NC(=O)[C@H](CCC(=O)O)NC(=O)[C@@H]1CCCN1C(=O)[C@H](CC(C)C)NC(=O)[C@H](CC(C)C)NC(=O)[C@@H](N)CCCCN)C(C)C)C(=O)O [p53 24-32]
[1]
  Proteasomal Cleavage of C-terminus, IP (RMA): + (Major cleavage sites are defined as more than >1% of total digested peptide within the first hour)
[2]
  Proteasomal Cleavage of C-terminus, HH (HeLa): + (Major cleavage sites are defined as more than >1% of total digested peptide within the first hour)
[3]
  Proteasomal Cleavage of C-terminus, IP (JY): + (Major cleavage sites are defined as more than >1% of total digested peptide within the first hour)

## CSCC[C@H](NC(=O)[C@H](CCCCN)NC(=O)[C@H](CC(N)=O)NC(=O)[C@H](CC(C)C)NC(=O)[C@H](C)N)C(=O)N[C@@H](Cc1ccccc1)C(=O)N[C@@H](CS)C(=O)N[C@@H](CCC(N)=O)C(=O)N[C@@H](CC(C)C)C(=O)N[C@@H](C)C(=O)N[C@@H](CCCCN)C(=O)O [p53 129-139]
HLA-A*0301 [4]; HLA-A*0301, IC50 category
  Peptide Binding Affinity: high
[1]
  Proteasomal Cleavage of C-terminus, IP (RMA): + (Major cleavage sites are defined as more than >1% of total digested peptide within the first hour)
HLA-A*0301 [5]
  Peptide Binding Stability: + (Stable peptides displayed IC50 at 20 °C that deviated <2 times of the IC50 at 4° C.)
[2]
  Proteasomal Cleavage of C-terminus, HH (HeLa): + (Major cleavage sites are defined as more than >1% of total digested peptide within the first hour)
[3]
  Proteasomal Cleavage of C-terminus, IP (JY): + (Major cleavage sites are defined as more than >1% of total digested peptide within the first hour)

## CSCC[C@H](NC(=O)[C@@H](N)CCCCN)C(=O)N[C@@H](Cc1ccccc1)C(=O)N[C@@H](CS)C(=O)N[C@@H](CCC(N)=O)C(=O)N[C@@H](CC(C)C)C(=O)N[C@@H](C)C(=O)N[C@@H](CCCCN)C(=O)O [p53 132-139]
HLA-A*1101 [6]
  Peptide Binding Affinity: high
HLA-A*0301 [4]; HLA-A*0301, IC50 category
  Peptide Binding Affinity: high
[1]
  Proteasomal Cleavage of C-terminus, IP (RMA): + (Major cleavage sites are defined as more than >1% of total digested peptide within the first hour)
HLA-A*0301 [5]
  Peptide Binding Stability: + (Stable peptides displayed IC50 at 20 °C that deviated <2 times of the IC50 at 4° C.)
[2]
  Proteasomal Cleavage of C-terminus, HH (HeLa): + (Major cleavage sites are defined as more than >1% of total digested peptide within the first hour)
HLA-A*1101 [7]
  Peptide Binding Stability: + (Stable peptides displayed IC50 at 20 °C that deviated <2 times of the IC50 at 4° C.)
[3]
  Proteasomal Cleavage of C-terminus, IP (JY): + (Major cleavage sites are defined as more than >1% of total digested peptide within the first hour)

## CC(C)C[C@H](NC(=O)[C@H](Cc1ccc(O)cc1)NC(=O)[C@@H](N)CCC(=O)O)C(=O)N[C@@H](CC(=O)O)C(=O)N[C@@H](CC(=O)O)C(=O)N[C@@H](CCCNC(=N)N)C(=O)N[C@@H](CC(N)=O)C(=O)N[C@H](C(=O)N[C@@H](Cc1ccccc1)C(=O)O)[C@@H](C)O [p53 204-212]
HLA-A*2401 [8]; HLA type A24
  HLA binding Affinity (Table 5): high
HLA-A*2401 [8]; HLA-A*2401, IC50 category
  Peptide Binding Affinity: high
HLA-A*2401 [9]; HLA type A24
  HLA binding Stability (Table 5): + (Stable peptides displayed IC50 at 20 °C that deviated <2 times of the IC50 at 4° C.)
HLA-A*2401 [9]; HLA-A*2401, IC50 at 20° C. vs 4° C.
  Peptide Binding Stability: + (Stable peptides displayed IC50 at 20 °C that deviated <2 times of the IC50 at 4° C.)

## CC[C@H](C)[C@H](NC(=O)[C@@H](NC(=O)[C@@H](NC(=O)[C@H](CS)NC(=O)[C@H](CC(=O)O)NC(=O)[C@H](CO)NC(=O)CN)[C@@H](C)O)[C@@H](C)O)C(=O)N[C@@H](Cc1c[nH]cn1)C(=O)N[C@@H](Cc1ccc(O)cc1)C(=O)O [p53 226-234]
[1]
  Proteasomal Cleavage of C-terminus, IP (RMA): + (Major cleavage sites are defined as more than >1% of total digested peptide within the first hour)
[2]
  Proteasomal Cleavage of C-terminus, HH (HeLa): + (Major cleavage sites are defined as more than >1% of total digested peptide within the first hour)

## KGQSTSRHK [p53 373-381]
HLA-A*0301 [4]
  HLA binding Affinity (Table 5): int
HLA-A*0301 [4]; HLA-A*0301, IC50 category, read-out: Peptide Binding Affinity
  IC50: 5 to 15 µM
[1]
  Proteasomal Cleavage of C-terminus, IP (RMA): + (Major cleavage sites are defined as more than >1% of total digested peptide within the first hour)
HLA-A*0301 [5]
  HLA binding Stability (Table 5): − (The rest was designated as unstable peptide binding.)
  Peptide Binding Stability: +/− (Peptides that displayed IC50 at 20 °C of more than twice the IC50 at 4 °C but IC50 < 15 μM were considered to bind with intermediate stability.)
[2]
  Proteasomal Cleavage of C-terminus, HH (HeLa): + (Major cleavage sites are defined as more than >1% of total digested peptide within the first hour)
[3]
  Proteasomal Cleavage of C-terminus, IP (JY): + (Major cleavage sites are defined as more than >1% of total digested peptide within the first hour)

## LGFLHSGTAK [p53 111-120]
HLA-A*1101 [6]
  Peptide Binding Affinity: high
HLA-A*0301 [4]
  HLA binding Affinity (Table 5): high
HLA-A*0301 [4]; HLA-A*0301, IC50 category
  Peptide Binding Affinity: high
[1]
  Proteasomal Cleavage of C-terminus, IP (RMA): + (Major cleavage sites are defined as more than >1% of total digested peptide within the first hour)
HLA-A*0301 [5]
  HLA binding Stability (Table 5): +/− (Peptides that displayed IC50 at 20 °C of more than twice the IC50 at 4 °C but IC50 < 15 μM were considered to bind with intermediate stability.)
  Peptide Binding Stability: +/− (Peptides that displayed IC50 at 20 °C of more than twice the IC50 at 4 °C but IC50 < 15 μM were considered to bind with intermediate stability.)
HLA-A*1101 [7]
  Peptide Binding Stability: + (Stable peptides displayed IC50 at 20 °C that deviated <2 times of the IC50 at 4° C.)
[3]
  Proteasomal Cleavage of C-terminus, IP (JY): + (Major cleavage sites are defined as more than >1% of total digested peptide within the first hour)
